pEC50: −log10 of the molar value.
Molecular target: T1, BmaDAF-12 (Brugia malayi, UniProt A0A4E9F2L4, R841H)
T1 sequence (A0A4E9F2L4 639-880 R841H): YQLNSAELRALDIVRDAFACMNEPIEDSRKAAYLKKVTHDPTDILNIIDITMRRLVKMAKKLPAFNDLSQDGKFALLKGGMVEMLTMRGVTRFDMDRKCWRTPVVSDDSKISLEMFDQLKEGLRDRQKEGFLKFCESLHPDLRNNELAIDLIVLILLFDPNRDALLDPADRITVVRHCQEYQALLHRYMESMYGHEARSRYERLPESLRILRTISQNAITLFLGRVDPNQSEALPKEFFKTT
Assay: cell-based

SMILES: CC(CCCC(C)C1CCC2C3=CCC4CC(=O)CCC4(C)C3CCC21C)C(=O)O [Δ7-dafachronic acid, (25S)-Δ7-dafachronic acid]
- pEC50: 8.74
